Like-named read-outs stand apart in the source and are kept apart here.
Biological target: T1, Androgen Receptor (Homo sapiens, UniProt P10275)
T1 construct: endogenous in cells; host or cells: VCaP cells
T1 sequence (P10275 1-920): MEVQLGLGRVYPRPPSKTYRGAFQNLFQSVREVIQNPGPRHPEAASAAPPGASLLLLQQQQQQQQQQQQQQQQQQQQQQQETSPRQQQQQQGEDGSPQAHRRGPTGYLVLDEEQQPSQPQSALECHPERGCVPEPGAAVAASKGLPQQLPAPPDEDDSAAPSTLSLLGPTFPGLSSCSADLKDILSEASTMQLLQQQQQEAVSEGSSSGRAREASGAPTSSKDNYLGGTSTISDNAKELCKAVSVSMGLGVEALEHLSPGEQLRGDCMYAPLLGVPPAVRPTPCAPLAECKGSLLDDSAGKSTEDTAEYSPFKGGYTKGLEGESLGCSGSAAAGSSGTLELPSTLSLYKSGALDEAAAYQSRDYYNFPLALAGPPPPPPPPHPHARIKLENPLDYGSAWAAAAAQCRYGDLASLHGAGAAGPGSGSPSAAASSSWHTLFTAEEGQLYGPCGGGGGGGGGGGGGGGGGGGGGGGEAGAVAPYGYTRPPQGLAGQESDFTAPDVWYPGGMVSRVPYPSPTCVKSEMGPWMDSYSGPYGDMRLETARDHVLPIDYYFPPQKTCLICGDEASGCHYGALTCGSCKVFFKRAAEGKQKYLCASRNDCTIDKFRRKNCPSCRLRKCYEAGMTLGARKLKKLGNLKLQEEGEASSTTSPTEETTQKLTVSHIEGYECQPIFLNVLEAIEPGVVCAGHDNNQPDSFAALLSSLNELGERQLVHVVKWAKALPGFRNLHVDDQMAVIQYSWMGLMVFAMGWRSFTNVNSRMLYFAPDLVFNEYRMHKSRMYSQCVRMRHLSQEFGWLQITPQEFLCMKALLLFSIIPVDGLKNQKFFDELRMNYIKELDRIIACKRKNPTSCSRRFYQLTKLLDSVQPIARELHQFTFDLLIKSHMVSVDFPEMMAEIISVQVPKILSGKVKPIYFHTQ
Assay: Androgen Receptor ELISA assay (PathScan AR ELISA) in VCaP cells: AR degradation, Dmax and DC50
Format: cell-based
Conditions: for DC50: read-out: VCaP DC50; for Dmax: VCaP, read-out: VCaP Dmax (%)
Summary of the method: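 VCaP cells, 30,000/well, grown ≥3 days in phenol red-free RPMI with 5% charcoal-stripped FBS; compound added in 0.1% DMSO with 0.1 nM R1881, 7 half-log doses, 24 h. Lysate AR quantified by PathScan sandwich ELISA, HRP/TMB read at 450 nm, giving DC50 and Dmax.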

Row | DC50 (VCaP cells, Table 36) [nM] | Dmax (VCaP cells, Table 36) [%] | Compound | Dmax [%]
1 | < 50 | > 71 | Cc1ncsc1-c1ccc([C@H](C)NC(=O)[C@@H]2CC(O)CN2C(=O)[C@H](C(C)C)N2Cc3cc(OCCN4CCN(c5ccc(C(=O)N[C@H]6C(C)(C)[C@H](Oc7ccc(C#N)c(Cl)c7)C6(C)C)cn5)CC4)ccc3C2=O)cc1 (stereo partly drawn) [Example 848, N-((1r,3r)-3-(3-chloro-4-cyanophenoxy)-2,2,4,4-tetramethylcyclobutyl)-6-(4-(2-((2-((S)-1-((2S, 4R)-4-hydroxy-2-(((S)-1-(4-(4-methylthiazol-5-yl)phenyl)ethyl)carbamoyl)pyrrolidin-1-yl)-3-methyl-1-oxobutan-2-yl)-1-oxoisoindolin-5-yl)oxy)ethyl)piperazin-1-yl)nicotinamide] | 
2 | < 50 | 26 to 50 | Cc1ncsc1-c1ccc([C@H](C)NC(=O)[C@@H]2C[C@@H](O)CN2C(=O)[C@@H](NC(=O)CC2(CN3CCN(c4ccc(C(=O)N[C@H]5C(C)(C)[C@H](Oc6ccc(C#N)c(Cl)c6)C5(C)C)cn4)CC3)COC2)C(C)(C)C)cc1 [Example 851, N-((1r,3r)-3-(3-chloro-4-cyanophenoxy)-2,2,4,4-tetramethylcyclobutyl)-6-(4-((3-(2-(((S)-1-((2S,4R)-4-hydroxy-2-(((S)-1-(4-(4-methylthiazol-5-yl)phenyl)ethyl)carbamoyl)pyrrolidin-1-yl)-3,3-dimethyl-1-oxobutan-2-yl)amino)-2-oxoethyl)oxetan-3-yl)methyl)piperazin-1-yl)nicotinamide] | 
3 | > 501 | < 25 | Cc1ncsc1-c1ccc([C@H](C)NC(=O)[C@@H]2CC(O)CN2C(=O)[C@H](C(C)C)N2Cc3ccc(OCCN4CCN(c5ccc(C(=O)N[C@H]6C(C)(C)[C@H](Oc7ccc(C#N)c(Cl)c7)C6(C)C)cn5)CC4)cc3C2=O)cc1 (stereo partly drawn) [Example 856, N-((1r,3r)-3-(3-chloro-4-cyanophenoxy)-2,2,4,4-tetramethylcyclobutyl)-6-(4-(2-((2-((S)-1-((2S, 4R)-4-hydroxy-2-(((S)-1-(4-(4-methylthiazol-5-yl)phenyl)ethyl)carbamoyl)pyrrolidin-1-yl)-3-methyl-1-oxobutan-2-yl)-3-oxoisoindolin-5-yl)oxy)ethyl)piperazin-1-yl)nicotinamide] | 

Second part, the compound before the results:

Row | Compound | DC50 (VCaP cells, Table 36) [nM] | Dmax (VCaP cells, Table 36) [%] | Dmax [%]
4 | Cc1ncsc1-c1ccc([C@H](CO)NC(=O)[C@@H]2C[C@@H](O)CN2C(=O)[C@@H](NC(=O)CN2CCC(CN3CCN(c4ccc(C(=O)N[C@H]5C(C)(C)[C@H](Oc6ccc(C#N)c(Cl)c6)C5(C)C)cn4)CC3)CC2)C(C)(C)C)cc1 [Example 847, N-((1r,3r)-3-(3-chloro-4-cyanophenoxy)-2,2,4,4-tetramethylcyclobutyl)-6-(4-((1-(2-(((S)-1-((2S,4R)-4-hydroxy-2-(((R)-2-hydroxy-1-(4-(4-methylthiazol-5-yl)phenyl)ethyl)carbamoyl)pyrrolidin-1-yl)-3,3-dimethyl-1-oxobutan-2-yl)amino)-2-oxoethyl)piperidin-4-yl)methyl)piperazin-1-yl)nicotinamide] | < 50 |  | > 71
5 | Cc1ncsc1-c1ccc([C@H](C)NC(=O)[C@@H]2C[C@@H](O)CN2C(=O)[C@@H](NC(=O)COCCN2CCN(c3ccc(C(=O)N[C@H]4CC(Oc5ccc(C#N)c(Cl)c5)C4(C)C)cn3)CC2)C(C)(C)C)cc1 (stereo partly drawn) [Example 849, N-((1S)-3-(3-chloro-4-cyanophenoxy)-2,2-dimethylcyclobutyl)-6-(4-(2-(2-(((S)-1-((2S, 4R)-4-hydroxy-2-(((S)-1-(4-(4-methylthiazol-5-yl)phenyl)ethyl)carbamoyl)pyrrolidin-1-yl)-3,3-dimethyl-1-oxobutan-2-yl)amino)-2-oxoethoxy)ethyl)piperazin-1-yl)nicotinamide] | < 50 | 51 to 70 | 
6 | Cc1ncsc1-c1ccc([C@H](C)NC(=O)[C@@H]2C[C@@H](O)CN2C(=O)[C@@H](NC(=O)COCCN2CCN(c3ccc(C(=O)N[C@H]4C[C@@H](Oc5ccc(C#N)c(Cl)c5)C4(C)C)cn3)CC2)C(C)(C)C)cc1 [Example 850, N-((1S,3R)-3-(3-chloro-4-cyanophenoxy)-2,2-dimethylcyclobutyl)-6-(4-(2-(2-(((S)-1-((2S, 4R)-4-hydroxy-2-(((S)-1-(4-(4-methylthiazol-5-yl)phenyl)ethyl)carbamoyl)pyrrolidin-1-yl)-3,3-dimethyl-1-oxobutan-2-yl)amino)-2-oxoethoxy)ethyl)piperazin-1-yl) nicotinamide] | < 50 | 51 to 70 | 
7 | CC(=O)O[C@@H]1C[C@@H](C(=O)N[C@@H](C)c2ccc(-c3scnc3C)cc2)N(C(=O)[C@H](C(C)C)N2Cc3cc(OCCN4CCN(c5ccc(C(=O)N[C@H]6C(C)(C)[C@H](Oc7ccc(C#N)c(Cl)c7)C6(C)C)cn5)CC4)ccc3C2=O)C1 [Example 852, (3R,5S)-1-((S)-2-(5-(2-(4-(5-(((1r,3r)-3-(3-chloro-4-cyanophenoxy)-2,2,4,4-tetramethylcyclobutyl)carbamoyl)pyridin-2-yl)piperazin-1-yl)ethoxy)-1-oxoisoindolin-2-yl)-3-methylbutanoyl)-5-(((S)-1-(4-(4-methylthiazol-5-yl)phenyl)ethyl)carbamoyl)pyrrolidin-3-yl acetate] | < 50 |  | 51 to 70
8 | Cc1ncsc1-c1ccc([C@H](C)NC(=O)[C@@H]2C[C@@H](O)CN2C(=O)[C@@H](NC(=O)CN2CCN(CC3CCN(c4ccc(C(=O)N[C@H]5C(C)(C)[C@H](Oc6ccc(C#N)c(Cl)c6)C5(C)C)cn4)CC3)CC2)C(C)(C)C)cc1 [Example 853, N-((1r,3r)-3-(3-chloro-4-cyanophenoxy)-2,2,4,4-tetramethylcyclobutyl)-6-(4-((4-(2-(((S)-1-((2S,4R)-4-hydroxy-2-(((S)-1-(4-(4-methylthiazol-5-yl)phenyl)ethyl)carbamoyl)pyrrolidin-1-yl)-3,3-dimethyl-1-oxobutan-2-yl)amino)-2-oxoethyl)piperazin-1-yl)methyl)piperidin-1-yl) nicotinamide] | < 50 |  | > 71
9 | Cc1ncsc1-c1ccc([C@H](CO)NC(=O)[C@@H]2C[C@@H](O)CN2C(=O)[C@@H](NC(=O)CN2CCN(CC3CCN(c4ccc(C(=O)N[C@H]5C(C)(C)[C@H](Oc6ccc(C#N)c(Cl)c6)C5(C)C)cn4)CC3)CC2)C(C)(C)C)cc1 [Example 854, N-((1r,3r)-3-(3-chloro-4-cyanophenoxy)-2,2,4,4-tetramethylcyclobutyl)-6-(4-((4-(2-(((S)-1-((2S,4R)-4-hydroxy-2-(((R)-2-hydroxy-1-(4-(4-methylthiazol-5-yl)phenyl)ethyl)carbamoyl)pyrrolidin-1-yl)-3,3-dimethyl-1-oxobutan-2-yl)amino)-2-oxoethyl)piperazin-1-yl)methyl)piperidin-1-yl)nicotinamide] | < 50 |  | > 71
10 | Cc1ncsc1-c1ccc([C@H](C)NC(=O)[C@@H]2C[C@@H](O)CN2C(=O)[C@@H](NC(=O)COCCN2CCN(c3ccc(C(=O)N[C@H]4C(C)(C)[C@H](Oc5ccc(C#N)c(C(F)(F)F)c5)C4(C)C)cn3)CC2)C(C)(C)C)cc1 [Example 855, N-((1r,3r)-3-(4-cyano-3-(trifluoromethyl)phenoxyl)-2,2,4,4-tetramethylcyclobutyl)-6-(4-(2-(2-(((S)-1-((2S, 4R)-4-hyrdoxy-2-(((S)-1-(4-(4-methylthiazol-5-yl)phenyl)ethyl)carbamoyl)pyrrolidin-1-yl)-3,3-dimethyl-1-oxobutan-2-yl)amino)-2-oxoethoxy)ethyl)piperazin-1-yl) nicotinamide] | < 50 | > 71 | 

Reference: patent publication US11427548B2 (Arvinas Operations, Inc., priority 2015, dated 2022)
